These results are taken from US20190322676A1, “CERAMIDE GALACTOSYLTRANSFERASE INHIBITORS FOR THE TREATMENT OF DISEASE” (BioMarin Pharmaceutical Inc., priority 2016, published 2019).

The structures appear in SMILES notation. Where a name gives a salt, the structure may show the parent alone.

The assay addresses T1, human CGT (ceramide galactosyltransferase), CHO/CGT lysate (Homo sapiens, UniProt Q16880).
T1 construct: Full-length human CGT cDNA was cloned into the BamH1/Xho1 site of pcDNA3.1 (+); expressed in transfected cells; host or cells: Chinese hamster ovary (CHO) cells; lysate prepared with M-PER
T1 sequence (Q16880 21-541): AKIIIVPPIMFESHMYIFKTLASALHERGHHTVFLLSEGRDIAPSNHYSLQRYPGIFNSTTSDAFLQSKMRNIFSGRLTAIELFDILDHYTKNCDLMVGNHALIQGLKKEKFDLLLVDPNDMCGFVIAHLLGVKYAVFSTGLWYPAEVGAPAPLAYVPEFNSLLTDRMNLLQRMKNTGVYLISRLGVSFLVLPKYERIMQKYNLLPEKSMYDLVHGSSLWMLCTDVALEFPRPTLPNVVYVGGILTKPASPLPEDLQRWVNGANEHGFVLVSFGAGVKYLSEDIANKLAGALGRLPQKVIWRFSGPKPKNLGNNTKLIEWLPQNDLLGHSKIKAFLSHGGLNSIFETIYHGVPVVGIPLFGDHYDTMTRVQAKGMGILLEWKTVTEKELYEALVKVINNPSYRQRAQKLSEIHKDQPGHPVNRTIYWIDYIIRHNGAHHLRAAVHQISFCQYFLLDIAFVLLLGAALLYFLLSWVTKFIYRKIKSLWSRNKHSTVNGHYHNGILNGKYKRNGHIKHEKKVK
The assay is described as follows: CGT enzyme assay, RapidFire/MS/MS readout with 0.01% Tween added (Table 1 ranges with two asterisks **). Format: biochemical. The following applies: CGT enzymatic assay; range with two asterisks (**): RapidFire/MS/MS method with 0.01% Tween added. The protocol:
Full-length human CGT cDNA was cloned into the BamH1/Xho1 site of pcDNA3.1 (+) mammalian expression vector (V90-20, Invitrogen, Carlsbad, Calif.) and the plasmid was transfected into Chinese hamster ovary (CHO) cells. Lysate was prepared using M-PER (Mammalian Protein Extraction Reagent, ThermoFisher Scientific, Grand Island, N.Y.) in the presence of a protease inhibitor cocktail (P8340, Sigma, Saint Louis, Mo.). Each 100 mm dish (100% confluent, approximately 1×10^7 cells) was lysed with 250 μL of M-PER containing protease inhibitors. Protein concentration was determined using a Pierce BCA protein assay kit (ThermoFisher Scientific). Four micrograms of CHO/CGT lysate was incubated with various concentrations of a compound (0.001 μM-50 μM) in 10 mM HEPES (pH 7.2) containing 35 μM dioleoylphosphatidylcholine, 5 mM MgCl2, 5 mM MnCl2, 1% BSA, 15 mM KCl, 1 mM EGTA, 8 mM CHAPS, 10 μM C6-NBD-dihydro-ceramide and 17.5 μM UDP-galactose in a final reaction volume of 20 μL at 37° C. for 1 hour. The final concentration of DMSO was 0.5% in both compound-treated and mock-treated samples. Tween 80 (0.01%) was optionally added to the reaction mixture to help solubilize the compounds. Each individual reaction was diluted with 80 μL of methanol:acetronitrile (1:3) containing 5 μM N-docdecanoyl-NBD-galactosylceramide (internal standard) to stop the reaction. 200 μL H2O:acetonitile (1:1) was added to precipitate the protein. After sufficient mixing, the plates were centrifuged at 2469 g for 38 minutes, 200 μL of supernatant was transferred to a LC/MS 96-deep well plate and a second spin was performed at 2469 g for 10 minutes. The final supernatant was injected in triplicate for RapidFire/MS/MS analysis.
Quantitative Analysis Using the RapidFire/MS/MS Method:
The quantitative analysis of C6-NBD-dihydro-ceramide and C6-NBD-dihydro-galactosylceramide was performed on a Rapid Fire 360 high-throughput mass spectrometry system (Agilent Technologies, Palo Alto, Calif.) coupled with a API4000^+ triple quadrupole mass spectrometer (Applied Biosystems, Concord, Ontario, Canada). RapidFire software packages, including RapidFire Control panel, RapidFire UI and RapidFire Integrator (Agilent Technologies), were used to control the RapidFire instrument and to process data. Analyst 1.6.2 software packages (Applied Biosystems) were used to control the MS system and acquire MS data. […] of sample was loaded on a micro-scale C4 solid-phase extraction (SPE) cartridge (Agilent Technologies) and salts were removed using water supplemented with 0.1% formic acid at the flow rate of 1.5 mL/min for 3 sec. C6-NBD-dihydro-ceramide and C6-NBD-dihydro-galactosylceramide were co-eluted into the mass spectrometer using acetonitrile containing 0.1% formic acid at the flow rate of 1.0 mL/min for 3 sec. The total cycle time of one injection was 8 secs. The MS/MS detection was performed in ESI negative mode. The mass transition of C6-NBD-dihydro-galactosylceramide was m/z 752.6→678.6 using a −40 V collision energy, the mass transition of C6-NBD-dihydro-ceramide was m/z 590.6→115.8 using a −40 V collision energy and the mass transition of N-docdecanoyl-NBD-galactosylceramide was m/z 820.9→746.3 using a −45 V collision energy.
The C6-NBD-dihydro-galactosylceramide reading was normalized first by dividing the peak area of C6-NBD-dihydro-galactosylceramide by the peak area of the internal standard, N-docdecanoyl-NBD-galactosylceramide. IC50 values (see Table 1, where data ranges with one asterix (*) correspond to analysis using the RapidFire/MS/MS method, and data ranges with two asterixes (**) correspond to analysis using the RapidFire/MS/MS method with 0.01% Tween added) were generated from sigmoidal dose-response curves (variable slope) with GraphPad Prism software (GraphPad Software, Inc., San Diego, Calif.) using the normalized peak areas of C6-NBD-dihydro-galactosylceramide or the percent inhibition of C6-NBD-dihydro-galactosylceramide accumulation relative to DMSO control. […]

Molecule `COc1cc(C(F)(F)[C@@H](NS(=O)(=O)c2ccc(OCC3CCCCC3)cc2)C(=O)N2CCC(N)CC2)ccc1-c1ccc(Cl)cc1` [Compound 146-2, (S)—N-(3-(4-aminopiperidin-1-yl)-1-(4′-chloro-2-methoxy-[1,1′-biphenyl]-4-yl)-1,1-difluoro-3-oxopropan-2-yl)-4-(cyclohexylmethoxy)benzenesulfonamide trifluoroacetate] came in with a concentration for half-maximal inhibition (IC50) of 1 to 10 µM. On to `O=C([C@@H](NS(=O)(=O)c1ccc2cc(OC3CCCC3)ccc2c1)C(F)(F)c1ccc(-c2ccc(Cl)cc2)cc1)N1C[C@H]2CNC[C@H]2C1` [Compound 147-1, N—((R)-1-(4′-chloro-[1,1′-biphenyl]-4-yl)-1,1-difluoro-3-((3aR,6aS)-hexahydropyrrolo[3,4-c]pyrrol-2(1H)-yl)-3-oxopropan-2-yl)-6-(cyclopentyloxy) naphthalene-2-sulfonamide trifluoroacetate], for which the concentration for half-maximal inhibition (IC50) is less than 1 µM. `O=C([C@H](NS(=O)(=O)c1ccc2cc(OC3CCCC3)ccc2c1)C(F)(F)c1ccc(-c2ccc(Cl)cc2)cc1)N1C[C@H]2CNC[C@H]2C1` [Compound 147-2, N—((S)-1-(4′-chloro-[1,1′-biphenyl]-4-yl)-1,1-difluoro-3-((3aR,6aS)-hexahydropyrrolo[3,4-c]pyrrol-2(1H)-yl)-3-oxopropan-2-yl)-6-(cyclopentyloxy)naphthalene-2-sulfonamide trifluoroacetate]: the IC50 fell in the range of 10 to 30 µM. The result for `N[C@H]1CCN(C(=O)[C@@H](NS(=O)(=O)c2ccc3cc(OC4CCCC4)ccc3c2)C(F)(F)c2ccc(-c3ccc(Cl)cc3)cc2)C1` [Compound 148-1, N—((R)-3-((S)-3-aminopyrrolidin-1-yl)-1-(4′-chloro-[1,1′-biphenyl]-4-yl)-1,1-difluoro-3-oxopropan-2-yl)-6-(cyclopentyloxy)naphthalene-2-sulfonamide trifluoroacetate] reads 1 to 10 µM; that for `N[C@H]1CCN(C(=O)[C@H](NS(=O)(=O)c2ccc3cc(OC4CCCC4)ccc3c2)C(F)(F)c2ccc(-c3ccc(Cl)cc3)cc2)C1` [Compound 148-2, N—((S)-3-((S)-3-aminopyrrolidin-1-yl)-1-(4′-chloro-[1,1′-biphenyl]-4-yl)-1,1-difluoro-3-oxopropan-2-yl)-6-(cyclopentyloxy)naphthalene-2-sulfonamide trifluoroacetate], 10 to 30 µM. The result for `N[C@@H]1CCN(C(=O)[C@@H](NS(=O)(=O)c2ccc3cc(OC4CCCC4)ccc3c2)C(F)(F)c2ccc(-c3ccc(Cl)cc3)cc2)C1` [Compound 149-1, N—((R)-3-((R)-3-aminopyrrolidin-1-yl)-1-(4′-chloro-[1,1′-biphenyl]-4-yl)-1,1-difluoro-3-oxopropan-2-yl)-6-(cyclopentyloxy)naphthalene-2-sulfonamide trifluoroacetate] reads less than 1 µM; that for `N[C@@H]1CCN(C(=O)[C@H](NS(=O)(=O)c2ccc3cc(OC4CCCC4)ccc3c2)C(F)(F)c2ccc(-c3ccc(Cl)cc3)cc2)C1` [Compound 149-2, N—((S)-3-((R)-3-aminopyrrolidin-1-yl)-1-(4′-chloro-[1,1′-biphenyl]-4-yl)-1,1-difluoro-3-oxopropan-2-yl)-6-(cyclopentyloxy) naphthalene-2-sulfonamide trifluoroacetate], 1 to 10 µM; that for `N[C@H]1[C@@H]2CC[C@H]1CN(C(=O)[C@@H](NS(=O)(=O)c1ccc3cc(OC4CCCC4)ccc3c1)C(F)(F)c1ccc(Cl)cc1)C2` [Compound 150-1, N—((R)-3-((1R,5S,8R)-8-amino-3-azabicyclo[3.2.1]octan-3-yl)-1-(4-chlorophenyl)-1,1-difluoro-3-oxopropan-2-yl)-6-(cyclopentyloxy)naphthalene-2-sulfonamide trifluoroacetate], less than 1 µM. Molecule `N[C@H]1[C@@H]2CC[C@H]1CN(C(=O)[C@H](NS(=O)(=O)c1ccc3cc(OC4CCCC4)ccc3c1)C(F)(F)c1ccc(Cl)cc1)C2` [Compound 150-2, N—((S)-3-((1R,5S,8S)-8-amino-3-azabicyclo[3.2.1]octan-3-yl)-1-(4-chlorophenyl)-1,1-difluoro-3-oxopropan-2-yl)-6-(cyclopentyloxy)naphthalene-2-sulfonamide trifluoroacetate] gave an IC50 of 1 to 10 µM. The result for `O=C([C@@H](NS(=O)(=O)c1ccc(OCC2CCCCC2)cc1)C(F)(F)c1ccc(-c2ccc(Cl)cc2)cc1)N1CCNCC1` [Compound 151-1, (R)—N-(1-(4′-chloro-[1,1′-biphenyl]-4-yl)-1,1-difluoro-3-oxo-3-(piperazin-1-yl)propan-2-yl)-4-(cyclohexylmethoxy)benzenesulfonamide trifluoroacetate] reads 1 to 10 µM; that for `O=C([C@H](NS(=O)(=O)c1ccc(OCC2CCCCC2)cc1)C(F)(F)c1ccc(-c2ccc(Cl)cc2)cc1)N1CCNCC1` [Compound 151-2, (S)—N-(1-(4′-chloro-[1,1′-biphenyl]-4-yl)-1,1-difluoro-3-oxo-3-(piperazin-1-yl)propan-2-yl)-4-(cyclohexylmethoxy) benzenesulfonamide trifluoroacetate], 30 to 100 µM. The result for `NC1CC2CCC(C1)N2C(=O)[C@@H](NC(=O)[C@H](O)c1ccc(OCC2CCCCC2)cc1)C(F)(F)c1ccc(-c2ccc(Cl)cc2)cc1` (stereo partly drawn) [Compound 152-1, (2R)—N-((2R)-3-(3-amino-8-azabicyclo[3.2.1]octan-8-yl)-1-(4′-chloro-[1,1′-biphenyl]-4-yl)-1,1-difluoro-3-oxopropan-2-yl)-2-(4-(cyclohexylmethoxy)phenyl)-2-hydroxyacetamide trifluoroacetate] reads 1 to 10 µM.

In turn, `NC1CC2CCC(C1)N2C(=O)[C@H](NC(=O)[C@@H](O)c1ccc(OCC2CCCCC2)cc1)C(F)(F)c1ccc(-c2ccc(Cl)cc2)cc1` (stereo partly drawn) [Compound 152-2, (2S)—N-((2S)-3-(3-amino-8-azabicyclo[3.2.1]octan-8-yl)-1-(4′-chloro-[1,1′-biphenyl]-4-yl)-1,1-difluoro-3-oxopropan-2-yl)-2-(4-(cyclohexylmethoxy)phenyl)-2-hydroxyacetamide trifluoroacetate] gave a half-maximal inhibitory concentration (IC50) of 30 to 100 µM. The result for `NC1CC2CCC(C1)N2C(=O)[C@@H](NC(=O)[C@@H](O)c1ccc(OCC2CCCCC2)cc1)C(F)(F)c1ccc(-c2ccc(Cl)cc2)cc1` (stereo partly drawn) [Compound 152-3, (2S)—N-((2R)-3-(3-amino-8-azabicyclo[3.2.1]octan-8-yl)-1-(4′-chloro-[1,1′-biphenyl]-4-yl)-1,1-difluoro-3-oxopropan-2-yl)-2-(4-(cyclohexylmethoxy)phenyl)-2-hydroxyacetamide trifluoroacetate] reads 1 to 10 µM.

A word on the IC50: it is the point on the concentration scale where inhibition reaches its midpoint. A high value points to weaker potency in that assay.
